From PMC6017909, “Synthesis and Evaluation of the Tumor Cell Growth Inhibitory Potential of New Putative HSP90 Inhibitors” (Molecules : A Journal of Synthetic Chemistry and Natural …, 2018) come the findings set out here.

SMILES strings stand for the structures.

Data set [1] deals with NCI-H460. Put plainly: Sulforhodamine B (SRB) cell growth inhibition assay. Conditions: Homo sapiens, 48 h treatment. In kind it is cell-based. How it is done: (§1) The following human tumor cell lines were used and maintained in RPMI-1640 medium with UltraGlutamine I and 25 mM Hepes (Lonza, Basel, Switzerland), supplemented with 5% FBS (Biowest): NCI-H460 (non-small cell lung adenocarcinoma), AGS (gastric adenocarcinoma) and MCF-7 (breast adenocarcinoma). The HFF-1 cell line (human foreskin fibroblasts) was cultured in DMEM High Glucose with L-Glutamine supplemented with 15% FBS. All cell lines were routinely maintained at 37 °C in a humidified incubator with 5% CO2. Cell number and viability were determined with the trypan blue exclusion assay. All the experiments were performed with exponentially growing cells presenting more than 90% cell viability.
(§2) The growth inhibitory effect of the compounds was assessed using the Sulforhodamine B (SRB) assay as previously described. Briefly, cells were plated into 96-well plates (5000 cells/well for MCF-7 and NCI-H460 cells and 7500 cells/well for AGS cells) and incubated for 24 h to adhere. Serial dilutions of the different compounds (ranging from 0 to 150 μM or from 0 to 50 μM) were then added to the cells. Cells were further incubated for 48 h. Following this period (or at the time the compound is added, T0), plates were fixed with 10% ice-cold trichloroacetic acid. Following staining with 0.4% SRB, plates were washed with 1% acetic acid and the bound dye solubilized with 10 mM Tris-Base. […] For the HFF-1 cell line, cells (15,000 cells/well) were plated into 96-well plates, allowed to adhere for 24 h and treated with the GI50 concentration of each compound for seven days. After this period, the SRB assay was carried out as described above. The effect of the maximum concentration of vehicle (solvent) of the compounds (H2O: 0.31% for compound 8 and 0.19% for compound 13) was also analyzed in each assay.

Another data set deals with AGS. Described as above. In kind it is cell-based. As to conditions: Homo sapiens, 48 h treatment. The procedure: as §1, §2
The subject of a further data set is MCF7. The data set is described as above. Conditions: Homo sapiens, 48 h treatment. It counts as cell-based. The procedure: as §1, §2
Data set [2] has as its system NCI-H460. Put plainly: Cellular proliferation, BrdU incorporation assay. As to conditions: 48 h. In kind it is cell-based, human. The procedure: NCI-H460 cells were plated in 6-well plates (1 × 10^5 cells/well) in RPMI-1640 medium with UltraGlutamine I and 25 mM Hepes (Lonza) supplemented with 10% FBS (PAA) at 37 °C in a humidified incubator with 5% CO2 for 24 h. […] These concentrations corresponded respectively to 5.2 μM and 7.8 μM for compound 5 and to 3.2 μM and 4.8 μM for compound 8. Cells were also incubated with medium only (Blank) or with the vehicle (solvent, H2O), corresponding to the highest concentration used when testing the compounds. Following treatment with the compounds, cells were further processed as follows. Following 47 h treatment, cells were further incubated with 10 μM bromodeoxyuridine (BrdU; Sigma) for 1 h. Cells were then trypsinized and fixed in 4% paraformaldehyde (in PBS) for 30 min. Cytopsins were prepared and a 20 min denaturation step was carried out by incubating slides in 2 M HCl. Following incubation with mouse anti-BrdU primary antibody (1/10, Dako) for 1 h at room temperature (RT), cells were further incubated with anti-mouse-Ig-FITC (1/100, Dako) for 30 min, at RT [21]. Slides were then mounted with Vectashield mounting medium with DAPI (Vector Laboratories). The percentage of BrdU incorporating cells was determined by counting a minimum of 500 cells per slide (except for one experiment in which due to technical difficulties less cells were counted when testing the compound 8) using a fluorescence microscope (DM2000; Leica, Wetzlar, Germany ).

Data set [3] has as its system HSP90 client proteins in STO cells. The data set is described as follows: HSP90 client protein levels by Western blot. It counts as cell-based, human. As to conditions: 24 h. An excerpt: (§3) For the cytotoxic activity studies and determination of GI50 concentrations in three different tumor cell lines, the cell culture conditions are described in Section 3.5. For the studies on the effect on % viable cells, cell cycle, cellular proliferation, and apoptosis, culture conditions are described in Section 3.6.1. For the remaining studies, the epithelial carcinoma cell line A431 and the non-small cell lung carcinoma cell line NCI-H460 were routinely grown in RPMI 1640 (Lonza, Vierviers, Belgium), supplemented with 10% (v/v) heat-inactivated fetal bovine serum (FBS, GIBCO, Invitrogen, Paisley, UK). The human peritoneal mesothelioma cell line STO was kindly provided by Dr. N. Zaffaroni (IRCCS Istituto Nazionale Tumori, Milan, Italy) and grown in 50/50 DMEM-Ham’s F12 medium (Lonza, Vierviers, Belgium), supplemented with 10% (v/v) heat-inactivated foetal bovine serum and 2 mM L-glutamine (L-Gln). All cell lines were maintained at 37 °C in a 5%/95% CO2/air atmosphere. All the compounds tested were freshly prepared by dissolving powder in dimethylsulfoxide (DMSO) (BDH Prolabo, Milan, Italy) and following dilution in culture medium. Cells were incubated with drugs for 48 h or 72 h (unless otherwise stated) at 37 °C in culture medium supplemented with 10% (v/v) heat-inactivated FBS; drug concentrations used for each assay and duration of treatments are reported in Legends to Figures.
(§4) Total cell lysates were prepared as described previously. Primary antibodies used in this study are: anti-Raf-1 and anti-CDK4 (Santa Cruz Biotechnology Inc., Santa Cruz, CA, USA), anti-Survivin (Abcam, Cambridge, UK), anti-Akt (Transduction Laboratories, Lexington, KY, USA), and anti-Actin Sigma Chemical Co., St. Louis, MO, USA).
(In general: A western blot detects proteins with antibodies after separation by electrophoresis.)

Data set [4] has as its system HSP90 client proteins in A431 cells. Put plainly: HSP90 client protein levels by Western blot. In kind it is cell-based, human. Conditions: 24 h.
Description: as §3, §4

The nature of data set [5]: Viable cell number, trypan blue exclusion assay. It counts as cell-based. As to conditions: human, NCI-H460 cells, read-out: Number of viable cells (in relation to Blank cells). How it is done: NCI-H460 cells were plated in 6-well plates (1 × 10^5 cells/well) in RPMI-1640 medium with UltraGlutamine I and 25 mM Hepes (Lonza) supplemented with 10% FBS (PAA) at 37 °C in a humidified incubator with 5% CO2 for 24 h. […] These concentrations corresponded respectively to 5.2 μM and 7.8 μM for compound 5 and to 3.2 μM and 4.8 μM for compound 8. Cells were also incubated with medium only (Blank) or with the vehicle (solvent, H2O), corresponding to the highest concentration used when testing the compounds. Following treatment with the compounds, cells were further processed as follows.
Cell number and % viable cells was determined with the Trypan blue exclusion assay.

A further data set relates to STO. Put plainly: Cell-counting assay, 72-h drug exposure. In kind it is cell-based. Conditions: Homo sapiens, read-out: Cell Growth Inhibitory Activity STO IC50 72 h.
Description: as §3
(§5) Cellular sensitivity to drugs was evaluated by a cell-counting assay after 72-h drug exposure. Cells in the logarithmic phase of growth were seeded in duplicate into 6-well plates. Twenty-four hours after seeding, the drug was added to the medium. Cells were harvested 72 h after drug exposure and counted with a cell counter.

The next data set has as its system A431. Put plainly: Cell-counting assay, 72-h drug exposure. In kind it is cell-based. Conditions: Homo sapiens, A-431, read-out: Cell Growth Inhibitory Activity A431 IC50 72 h.
Description: as §3, §5

For orientation: GI50 means the concentration giving 50% growth inhibition. A lower GI50 goes with more potent growth inhibition. For orientation: IC50 means the midpoint of a concentration-inhibition curve. For `O=c1c2ccccc2oc2c[n+](Cc3ccccc3)ccc12.[Br-]` [Compound 5, 2-Benzyl-10-oxo-10H-9-oxa-2-azonia-anthracene bromide], the results for the GI50 in the data set with NCI-H460 [1], with AGS and in the data set with MCF7 were 5.2 ± 1.2 µM, 6.9 ± 1.2 µM and 5.4 ± 0.6 µM, respectively. In addition, the “Percentage of BrdU-incorporating cells” value in the data set on NCI-H460 [2] (1.5× GI50 (7.8 μM), untreated cells 32%) is listed as 22%; with NCI-H460 [2] (GI50 (5.2 μM), untreated cells 32%) it was 25%. The CDK4 protein level result in data set [3] (2.7 μM) and in data set [4] (5.4 μM) was “almost complete downregulation” in each case. The Survivin protein level entry in [3] (2.7 μM) and in [4] (5.4 μM) was “partial downregulation” throughout. Moreover, the viability at 48 h, 5.2 µM in data set [5] (5.2 μM (GI50)) amounted to 71%. Also, the viability at 48 h, 7.8 µM in data set [5] (7.8 μM (1.5× GI50)) is 49%. The figures for the IC50 in the data set on STO and in the data set with A431 were 2.7 ± 0.8 µM and 1.36 ± 0.05 µM, respectively.

`O=c1c2ccccc2sc2c[n+](Cc3ccccc3)ccc12.[Br-]` [Compound 8, 2-Benzyl-5-oxo-5H-thiochromeno[2,3-c]pyridin-2-ium bromide]: the GI50 in the data set with NCI-H460 [1] was 3.2 ± 0.1 µM; in the data set with AGS, 3.1 ± 0.3 µM; with MCF7, 3.2 ± 0.1 µM. Further, the “Percentage of BrdU-incorporating cells” value in the data set with NCI-H460 [2] (1.5× GI50 (4.8 μM), untreated cells 31%) is listed as 21%; in the data set on NCI-H460 [2] (GI50 (3.2 μM), untreated cells 31%), 26%. Moreover, the Survivin protein level entry in data set [3] (2.6 μM) was “caused degradation”; in data set [4] (2.6 μM, compared with STO cells), “less marked”. For the same molecule, in data set [4] (2.6 μM), the Akt protein level result is given as “partial downregulation”. The EGFR protein level result in [4] (2.6 μM) is “partial downregulation”. Further, the RAF protein level result in data set [4] (2.6 μM) is reported as “strong downregulation”. Moreover, in data set [5] (3.2 μM (GI50)), the viability at 48 h, 3.2 µM is 57%. Also, the viability at 48 h, 4.8 µM in [5] (4.8 μM (1.5× GI50)) is 29%. For the same molecule, the values for the IC50 with STO and in the data set on A431 were 0.26 ± 0.08 µM and 0.26 ± 0.4 µM, respectively.
